The text below walks through data of patent US20130172324A1, “METHOD FOR TREATING CARDIOVASCULAR DISEASES USING RHO KINASE INHIBITOR COMPOUNDS” (priority 2008, published 2013).

Like-named read-outs stand apart in the source and are kept apart here.

The test system of data set [1] is ova-sensitized, ova-challenged mice. As to the kind of experiment: Bronchodilator assay in ovalbumin-sensitized mice (Penh, methacholine). Format: in vivo, mouse. The settings on record: for log10AUC (penh): bronchodilator dosing paradigm. The protocol: Male BALB/c mice were ordered from Charles River Laboratories (Raleigh, N.C.). The animals were approximately 19 to 21 grams at time of receipt. Upon arrival, the animals were randomized into groups of five males per cage and assigned to a dosing group. Animals were quarantined for 7 days under test conditions. They were observed daily for general health status and ability to adapt to the water bottles.
Animals were sensitized on day 0 and 14 of study by an intraperitoneal injection with 20 μg of ovalbumin (ova) and 2.0 mg aluminum hydroxide (alum) which initiates the development of a specific T-helper (Th) cells type 2 resulting in asthmatic animals. One group of animals received an injection of saline to use as non-asthmatic control animals. All animals were challenged with aerosolized 1% ova once daily for 25 minutes on days 28, 29, and 30 (Zosky, et al. Respiratory Research. 2004; 5:15). Aerosol challenge consists of using an Aerogen Aeroneb nebulizer and controller with a particle size of 4-6 μm mass median aerodynamic diameter (MMAD) with a distribution of 400 μl per minute. This aerosol challenge is necessary to target the Th2-driven allergic inflammation in the lower airways.
The test compounds and the control vehicle were administered to animals on the day of airway hyperreactivity evaluation 30 minutes to 1 hour before the evaluation to determine the bronchodilator effects of the compounds according to the bronchodilator dosing paradigm (FIG. 8). Compounds were administered p.o. (orally), i.p. (intraperitoneally) at 15 μMol/kg unless otherwise noted (Table 6). Alternatively, compounds were administered i.t. (intratracheally) at varying doses as shown (FIG. 9). On day 32 of the experiment, airway hyperreactivity was evaluated by placing conscious, unrestrained animals in a whole body plethysmometer (Buxco Wilmington, N.C.) and exposing them to escalating doses of nebulized methacholine, a known bronchial constrictor which acts through the muscarinic receptors of the lungs, (doses: 0.325-50 mg/ml). Exposure to the methacholine doses consisted of a 3 minute period during which a nebulizer was aerosolizing the methacholine and an additional 3 minute period following the cessation of nebulization. Over this 6 minute period, the plethysmometer monitors and generates numerical values for all parameters of the breath pattern. Enhanced pause (Penh), a unitless index of airway hyperreactivity, is derived from the expiratory side of the respiratory waveform measured via the plethysmograph and is used as an indirect measure of airway resistance and hyperreactivity. […] Following the methacholine dose response, all animals were anesthetized, bled and euthanized.
Within each experiment, a mouse was given a single compound and exposed to increasing doses of methacholine [0 (baseline), 0.375, 0.75, 1.5, 3, 6, 12, 25, 50 mg/ml]. The Penh value at each of the dose levels of methacholine represents the 6-minute average response. Change from baseline (CFB) in Penh was calculated at each methacholine dose and the area under the curve (AUC) for these CFB values was calculated using the trapezoidal rule. This same approach was applied for each mouse across multiple experiments.
For statistical analyses, a linear mixed-effects model where the response was the log 10 transformed value of AUC described above was used. Data from equal experimental conditions across experiments performed on different days were pooled for statistical analysis and data reporting. The various compounds were compared adjusting for the log 10-transformed baseline value of Penh and the chamber (1 of 10) of the plethysmometer each mouse was contained in during an experiment. A random intercept for each experiment was assumed to account for possible similarities of the results obtained from a given experiment (i.e., as a “blocking effect”). […] Computations were performed using PROC MIXED (SAS Version 9.1). […]

Another data set deals with rat trachea rings. As to the kind of experiment: Tracheal relaxation assay (carbachol precontracted rings).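 As to all read-outs here: isometric tension of rat tracheal rings in Krebs buffer with 1 µM indomethacin, compounds added cumulatively at 30 min intervals, basal tension subtracted, fit to Hill equation.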 Conditions: for Percentage of carbachol-induced contraction at 1 μM compound, Avg % / Percentage of carbachol-induced contraction at 10 μM compound, Avg %: 1 μM carbachol; for IC50: read-out: IC50 Avg; for Trachael Ring Contraction, %: average percentage of carbachol-induced rat tracheal ring contraction at 1 μM of test compound.

Data set [2] deals with ova-sensitized, ova-challenged mice. The data set can be described thus: Prevention of airway hyperreactivity development, anti-inflammatory dosing paradigm (Penh). Format: in vivo, mouse. The settings on record: intratracheal once a day, days 27 to 30 (1.091) or 27 to 31.
The target of another data set is T1, ERK2 (Homo sapiens, UniProt P28482).
T1 construct: purchased Upstate, Millipore Bioscience Division (KinaseProfiler service)
The data set can be described thus: Kinase panel screen (KinaseProfiler), ERK2. The settings on record: 10 μM ATP. Format: biochemical. The protocol:
(§1) Compounds of Formulae I and II were examined for activity against a selected panel of kinases using the KinaseProfiler™ enzyme profiling services (Upstate, Millipore Bioscience Division). Percent kinase activity at 10 μM and 1 μM test compound and 10 μM ATP was determined against 40 wild-type recombinant human kinases according to Upstate's standard protocol: ASK1, BTK, CSK, c-RAF, GCK, GSK3β, IKKα, IKKβ, IRAK1, IRAK4, JNK1α1, JNK2α2, JNK3, ERK1, ERK2, MAPKAP-K2, MAPKAP-K3, MEK1, MKK4, MKK6, MKK7β, Mnk2, MSK1, PAK3, PDK1, PRAK, ROCK1, Rsk2, SAPK2a, SAPK2b, SAPK3, SAPK4, SRPK1, SRPK2, Syk, TAK1, TBK1, PI3-Kβ, PI3-Kγ, PI3-Kδ.

Data set [3] in a line: Rat oral pharmacokinetics (plasma). Format: in vivo.
Protocol: Plasma (EDTA K2 anticoagulant) was collected from male, cannulated, CD Sprague Dawley rats to determine the pharmacokinetics of formulations containing compound inhibitors of Rho kinase. Each animal was dosed orally with a 4 ml/kg solution or suspension of each test compound in 10 mM acetate buffered saline, pH 4.5 at a final concentration range of 20-30 μmol/kg. Blood was collected at 0.25, 0.5, 1, 2, 4, 6, 8, and 24 hours. Plasma samples were assayed for the concentration of the test compound using an on-line, solid phase extraction LC/MS/MS analysis system.
Samples were analyzed on a QSTAR Elite, hybrid quadrupole time-of-flight mass spectrometer (Applied Biosystems, Framingham, Mass.) coupled with a Symbiosis Pharma integrated, on-line SPE-HPLC system (Spark Holland Inc., Plainsboro, N.J.). Analyst QS 2.0 software was used for instrument control, data acquisition and processing. […] Mobile Phase A consisted of 0.1% ammonium hydroxide in water and Mobile Phase B consisted of 0.1% formic acid in acetonitrile. Pharmacokinetic analyses were performed using WinNonlin software version 5.2 (Pharsight Corporation, Mountain View, Calif.).
As determined from the plasma concentration versus time curves, the time to peak and peak exposure are represented by the values Tmax and Cmax, respectively. The AUC values (nM*hr) shown were calculated as the areas under the plasma concentration versus time curves from time zero through the time of the last observable value and represent the total exposure of the compound over the course of the study. Half-life values or the amount of time required for the plasma levels of the compound to decline to half the initial value are represented as t1/2.
The subject of data set [4] is cytokine secretion from LPS-stimulated human monocytes. The data set can be described thus: Human monocyte cytokine secretion assay (LPS). Format: cell-based.
Protocol: Peripheral blood from healthy human volunteers was collected and the monocytes isolated via Ficoll-paque density centrifugation. […] The cells were allowed to pre-incubate with test compound at the indicated concentration for 30 minutes (37° C., 5% CO2, humidified air); after which the supernatant was removed and media containing compound and 1 ng/mL LPS was added. Cells were allowed to incubate with compounds and LPS for 4 hours at 37° C. after which the supernatant was removed and stored at −80° C. Cytokine concentrations in the supernatant were determined using commercially available Bio-Rad Bio-plex™ kits according the manufacturer's instructions.
In the next data set the target is T2, ERK1 (Homo sapiens, UniProt P27361).
T2 construct: purchased Upstate, Millipore Bioscience Division (KinaseProfiler service)
As to the kind of experiment: Kinase panel screen (KinaseProfiler), ERK1. The format is biochemical. The settings on record: 10 μM ATP. Here is the method:
as §1

Where [5] appears, read: rat, oral, 20-30 μmol/kg, plasma, mean of n = 3.

T1 sequence (P28482 whole entry): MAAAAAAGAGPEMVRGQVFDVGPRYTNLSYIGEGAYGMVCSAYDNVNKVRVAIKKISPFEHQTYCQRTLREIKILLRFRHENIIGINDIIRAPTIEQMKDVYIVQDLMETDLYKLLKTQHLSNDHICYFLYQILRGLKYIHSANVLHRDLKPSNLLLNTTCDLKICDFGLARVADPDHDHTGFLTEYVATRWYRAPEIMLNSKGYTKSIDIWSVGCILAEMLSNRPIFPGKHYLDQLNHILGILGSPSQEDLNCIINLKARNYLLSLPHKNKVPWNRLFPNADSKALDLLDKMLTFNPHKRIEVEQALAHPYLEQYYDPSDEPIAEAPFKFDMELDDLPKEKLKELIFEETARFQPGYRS
T2 sequence (P27361 whole entry): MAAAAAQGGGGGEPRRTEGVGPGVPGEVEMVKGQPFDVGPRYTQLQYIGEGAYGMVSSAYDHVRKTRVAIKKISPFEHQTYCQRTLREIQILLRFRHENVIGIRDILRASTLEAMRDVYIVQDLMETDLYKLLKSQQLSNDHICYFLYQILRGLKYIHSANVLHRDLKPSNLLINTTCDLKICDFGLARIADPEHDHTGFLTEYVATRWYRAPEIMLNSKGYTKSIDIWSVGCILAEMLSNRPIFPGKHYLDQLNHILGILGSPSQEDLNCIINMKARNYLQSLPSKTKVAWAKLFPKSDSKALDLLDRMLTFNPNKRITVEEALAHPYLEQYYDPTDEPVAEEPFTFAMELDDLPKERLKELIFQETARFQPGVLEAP
Protocol for rat trachea rings: The effects of compounds to induce relaxation of pre-contracted rat trachealis were determined. […] Trachea were excised, cleaned of connective tissue and cut into cylindrical segments of 2-3 mm length. Two stainless steel wires were guided through the lumen of the tracheal ring. One wire was fixed in the tissue bath and the other was connected to a force transducer via surgical silk. […] Indomethacin (1 μM), a cyclooxygenase inhibitor, was added to the Krebs buffer and was present throughout the experiments. Contractile tensions were measured using an isometric force transducer (Grass Instruments) and signals were analyzed using specialized software (Chart v5.5, ADInstruments). The preparations were allowed to equilibrate at a resting tension of 0.3 to 0.5 gm prior to two challenges with 60 mM KCl to assess tissue viability. After washing, tissues were treated with 1 μM carbachol for 10 to 15 minutes to induce a contractile response. Test Compounds were added cumulatively to the bath every 30 minutes and reductions in tension were recorded. Basal tension was subtracted from all values and data were reported as a percentage of the maximal carbachol-induced contraction. Data were fit to the Hill equation using GraphPad Prism v5 software.

For the compound `C[C@@H](N)[C@H]1CC[C@H](C(=O)Nc2ccncc2)CC1` [Compound Y-27632, reference compound], in data set [1] (30 μmol/kg oral), the “log10AUC (penh)” value was determined as 2.0135. Further, in the data set with rat trachea rings, the “Percentage of carbachol-induced contraction at 1 μM compound, Avg %” value (“Percentage … at 1 μM compound, Avg %” below) was determined as 83.7% and the “Percentage of carbachol-induced contraction at 10 μM compound, Avg %” value (from here on “Percentage … at 10 μM compound, Avg %”) was determined as 23.4%. Also, the IC50 in the data set on rat trachea rings (relaxation of 1 μM carbachol precontracted rat tracheal rings) came to 4.78 µM.
Regarding `Cc1ccc(CN2CCC[C@@H](Nc3ccc4[nH]ncc4c3)C2)cc1OCCO` [Compound 1.161, (R)-2-(5-((3-(1H-indazol-5-ylamino)piperidin-1-yl)methyl)-2-methylphenoxy)ethanol], the “log10AUC (penh)” value in data set [1] (15 μmol/kg intraperitoneal) is 1.9042. Also, the “airway hyperreactivity” value in data set [2] is “prevention of airway hyperreactivity”. The “Percent inhibition, ERK2” value on ERK2 (1 μM test compound) was determined as 104%. Moreover, the “Percent inhibition, ERK2” value on ERK2 (10 μM test compound) was 92%. Besides, in the data set on rat trachea rings, the “Percentage … at 1 μM compound, Avg %” value was found to be 40.3% and the “Trachael Ring Contraction, %” value was found to be 40%.
Turning to `Cc1ccc(CN2CC[C@@H](Nc3cccc4cnccc34)C2)cc1` [Compound 2.025, (R)-N-(1-(4-methylbenzyl)pyrrolidin-3-yl)isoquinolin-5-amine], the “log10AUC (penh)” value in data set [1] (15 μmol/kg intraperitoneal) worked out at 1.9667. For the same compound, in the data set on rat trachea rings, the “Percentage … at 1 μM compound, Avg %” value was 33.3% and the “Trachael Ring Contraction, %” value is 33%.
In the case of `NCc1cccc(CN2CCC[C@@H](Nc3ccc4[nH]ncc4c3)C2)c1` [Compound 1.235, (R)-N-(1-(3-(aminomethyl)benzyl)piperidin-3-yl)-1H-indazol-5-amine], the “log10AUC (penh)” value in data set [1] (15 μmol/kg intraperitoneal) stood at 1.9362.
Regarding `NS(=O)(=O)c1cccc(CN2CCC[C@H](Nc3ccc4[nH]ncc4c3)C2)c1` [Compound 1.215, (S)-3-((3-(1H-indazol-5-ylamino)piperidin-1-yl)methyl)benzenesulfonamide], in data set [1] (15 μmol/kg intraperitoneal), the “log10AUC (penh)” value amounted to 2.0081. In addition, in the data set with rat trachea rings, the “Percentage … at 1 μM compound, Avg %” value is reported as 40.6% and the “Trachael Ring Contraction, %” value is 41%.
For `CCc1ccc(CN2CCC[C@@H](Nc3ccc4[nH]ncc4c3)C2)cc1` [Compound 1.136, (R)-N-(1-(4-ethylbenzyl)piperidin-3-yl)-1H-indazol-5-amine], the “oral bioavailability” value in data set [3] (oral dosing) is on record as “poor oral bioavailability”. For the same compound, in data set [3] (setting [5]), the “AUC (0-last)” value is “BLQ”, the Cmax result is given as “BLQ”, the Tmax result is recorded as “BLQ” and the Vz_F entry was “BLQ”. The t½ result in data set [3] (setting [5]) is “BLQ”. Besides, the “log10AUC (penh)” value in data set [1] (15 μmol/kg intraperitoneal) is on record as 2.1379. Further, the “log10AUC (penh)” value in data set [1] (15 μmol/kg oral) is 2.2490. Also, the “reduction in airway hyperresponsiveness” value in data set [1] (i.p. route, compared to oral dosing) is given as “enhanced reduction”. Further, in data set [1] (oral doses), the “reduction in airway hyperresponsiveness” value is given as “did not yield a significant reduction”. For the same compound, in the data set with rat trachea rings, the “Percentage … at 1 μM compound, Avg %” value is recorded as 45.0%; the “Percentage … at 10 μM compound, Avg %” value worked out at 19.7%; the “Trachael Ring Contraction, %” value was found to be 45%. Besides, the IC50 in the data set on rat trachea rings (Rattus norvegicus) came out at 0.861 µM.
Turning to `Cc1ccc(CN2CC[C@@H](Nc3cccc4cnccc34)C2)cc1OCCO` [Compound 2.064, (R)-2-(5-((3-(isoquinolin-5-ylamino)pyrrolidin-1-yl)methyl)-2-methylphenoxy)ethanol], the IL-1β % was 14.3% in data set [4] (4 h, 10 µM) and 14.3% in data set [4] (average percent of stimulated IL-1β secretion from human monocytes at 10 μM of test compound). The IL-6, % in data set [4] (4 h, 10 µM) worked out at 45.7%; in data set [4] (average percent of stimulated IL-6 secretion from human monocytes at 10 μM of test compound), 45.7%. Besides, the TNF-α % in data set [4] (4 h, 10 µM) is recorded as 66.2%; in data set [4] (average percent of stimulated TNF-α secretion from human monocytes at 10 μM of test compound), 66.2%.
Turning to `NC(=O)Cn1ccc2cc(CN3CCC[C@@H](Nc4ccc5[nH]ncc5c4)C3)ccc21` [Compound 1.162, (R)-2-(5-((3-(1H-indazol-5-ylamino)piperidin-1-yl)methyl)-1H-indol-1-yl)acetamide], the figures for the “Percent inhibition, ERK1” value on ERK1 (1 μM test compound) and at ERK1 (10 μM test compound) were 84% and 50%, respectively. The “log10AUC (penh)” value in data set [1] (15 μmol/kg intraperitoneal) was found to be 1.7001. The “Percent inhibition, ERK2” value was determined as 89% on ERK2 (1 μM test compound) and 60% at ERK2 (10 μM test compound). In the data set with rat trachea rings, the “Percentage … at 1 μM compound, Avg %” value came out at 34.4%. The “Trachael Ring Contraction, %” value with rat trachea rings is recorded as 34%.
In the case of `OCCOc1cccc(CN2CCC[C@@H](Nc3ccc4[nH]ncc4c3)C2)c1` [Compound 1.092, (R)-2-(3-((3-(1H-indazol-5-ylamino)piperidin-1-yl)methyl)phenoxy)ethanol], the Vz_F in data set [3] (setting [5]) is reported as 19.0 L/kg. Besides, in the data set on rat trachea rings, the “Percentage … at 1 μM compound, Avg %” value stood at 67.7% and the “Percentage … at 10 μM compound, Avg %” value is listed as −2.9%. Further, the IC50 in the data set on rat trachea rings (Rattus norvegicus) was 0.453 µM.

The term IC50 denotes the point on the concentration scale where inhibition reaches its midpoint.
